For 13 compounds, IC50, DC50 and Dmax results are on record in patent publication US11384063B2, “Modulators of estrogen receptor proteolysis and associated methods of use” (Arvinas Operations, Inc., priority 2017, dated 2022).

Structures can show the parent of a compound that is named as a salt.

The target in assay [1] is T1, ERα (Homo sapiens, UniProt P03372).
T1 sequence (P03372 1-595): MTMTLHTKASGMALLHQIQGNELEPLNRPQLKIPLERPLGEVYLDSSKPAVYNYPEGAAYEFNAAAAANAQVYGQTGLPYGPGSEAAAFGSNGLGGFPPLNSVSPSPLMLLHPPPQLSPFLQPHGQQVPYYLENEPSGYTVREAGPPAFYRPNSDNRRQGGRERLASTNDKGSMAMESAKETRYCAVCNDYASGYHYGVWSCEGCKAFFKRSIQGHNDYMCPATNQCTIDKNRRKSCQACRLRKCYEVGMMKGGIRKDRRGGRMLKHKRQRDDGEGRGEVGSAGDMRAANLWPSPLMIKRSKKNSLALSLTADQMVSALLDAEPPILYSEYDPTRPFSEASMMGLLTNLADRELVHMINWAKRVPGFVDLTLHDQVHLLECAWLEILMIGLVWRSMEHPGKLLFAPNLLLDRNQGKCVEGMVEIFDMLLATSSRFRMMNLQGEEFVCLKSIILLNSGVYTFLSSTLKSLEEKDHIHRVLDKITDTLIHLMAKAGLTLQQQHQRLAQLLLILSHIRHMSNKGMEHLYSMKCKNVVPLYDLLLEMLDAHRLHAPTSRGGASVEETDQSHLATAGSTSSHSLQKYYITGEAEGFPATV
The assay is described as follows: ERE luciferase reporter gene assay in T47D-KBluc cells (target engagement). The arrangement: T47D human breast cancer cells stably transfected with estrogen responsive element/promoter/luciferase reporter gene; host or cells: T47D-KBluc cells. The note with it: 10% FBS, 24 hours, Table 3 cereblon centric PROTACs, read-out: ER-α Luciferase IC50. It counts as cell-based. An outline of the steps: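 T47D-KBluc breast cancer cells, which carry a stable ERE-luciferase reporter, were grown in RPMI with 10% FBS (about 10 pM estrogen) and exposed to PROTACs for 24 h. The 12-point, 3-fold series ran from 300 nM to 2 pM. Luciferase was read after lysis, and IC50 was fitted from duplicates.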
In general terms: Reporter assays use an easily measured gene product as a stand-in for the process of interest.

Assay [2] concerns the target T1, ERα. The assay is described as follows: Estrogen receptor-alpha (ERα) degradation assay in MCF7 cells using In-Cell Western assay. The class given is cell-based. The note with it: ER-alpha degradation in MCF7 cells, 5 days of incubation. Details: assessed for their activity in degrading ERα in MCF-7 cells via western blot; endogenous in cells; host or cells: MCF7 cells. The protocol:
Estrogen Receptor-Alpha (ERα) Degradation Assay Using in-Cell Western™ Assay for Table 5.
Degradation of ERα by claimed compounds were determined in MCF7 cells using an In-Cell Western™ assay. Briefly, MCF7 cells were plated in 96-well plates (2000 cells per well in 100 μl media) and incubated at 37° C. under an atmosphere of 5% CO2 in a humidified incubator overnight. One-hundred (100) μI of media containing test compound (at 2x concentration) was added to the appropriate wells to provide 11 serially decreasing concentrations (top final concentration, 1 μM then 3-fold less for the next 10 concentrations); a vehicle control (DMSO) was also added for each compound. For each experiment, all compounds were assayed on duplicate plates. Cells were then incubated for 3 or 5 days in the above-mentioned environment. The assay was terminated by removal of media, a single wash with ice-cold PBS and the addition of 50 μl paraformaldehyde (PFA: 4% in PBS). After 15 minutes in PFA at room temperature, the cells were permeabilized in Tris-phosphate-buffered saline with Tween (0.1%) (TBST) supplemented with Triton X-100 (0.5%) for 15 minutes. Cells were then blocked in BSA (TBST with BSA, 3%) for one hour. Primary antibodies for the detection of ERa (rabbit monoclonal, 1:1000, Cell Signaling Technology Catalog #8644) and tubulin (mouse monoclonal, 1:5000, Sigma Catalog #T6074) in TBST with BSA (3%) were added. The cells were incubated overnight at 4° C. The cells were then washed thrice with TBST at room temperature and then incubated with anti-rabbit and anti-mouse fluorescently-labelled secondary antibodies (IRDye®; LI-COR; Lincoln, Nebr.) in LI-COR blocking buffer (Catalog #927-50000) for one hour at room temperature. Following 3 washes with TBST, the buffer was removed and the plates were read on an Odyssey® infrared imaging system (LI-COR®, Lincoln, Nebr.) at 700 nm and 800 nm. Using commercial software (ImageStudio™; LI-COR, Lincoln, Nebr.), the staining intensity for ERa and tubulin in each well was quantified and exported for analysis. For each data point, ERa intensity was normalized to tubulin intensity and for each compound all normalized intensity values were normalized to the vehicle control. DC50 and Dmax values were determined following a 4-parameter IC50 curve fit using ACAS dose response module (McNeil & Co Inc.).

With `O=C1CCC(N2C(=O)c3ccc(N4CCN(C5CCN(CCOc6ccc(Oc7c(-c8ccc(Br)cc8)sc8cc(O)ccc78)cc6)CC5)CC4)cc3C2=O)C(=O)N1` (centres unmarked) [Compound 183, 5-[4-[1-[2-[4-[2-(4-bromophenyl)-6-hydroxy-benzothiophen-3-yl]oxyphenoxy]ethyl]-4-piperidyl]piperazin-1-yl]-2-(2,6-dioxo-3-piperidyl)isoindoline-1,3-dione], the IC50 (in general, the concentration that gives 50% inhibition) on ERα [1] is 2.5 nM. Further, on ERα [2], the DC50 – broadly, the midpoint of the concentration-degradation curve – was 10 to 100 nM and the maximal degradation (Dmax) – broadly, the largest share of the target that was removed – is 50 to 75%.
For `O=C1CCC(N2C(=O)c3ccc(N4CCN(CC5CCN(CCOc6ccc(Oc7c(-c8ccc(Br)cc8)sc8cc(O)ccc78)cc6)CC5)CC4)cc3C2=O)C(=O)N1` (centres unmarked) [Compound 184, 5-[4-[1-[2-[4-[2-(4-bromophenyl)-6-hydroxy-benzothiophen-3-yl]oxyphenoxy]ethyl]-4-piperidylmethyl]piperazin-1-yl]-2-(2,6-dioxo-3-piperidyl)isoindoline-1,3-dione] the same measures were 13.3 nM, 10 to 100 nM and over 75%.
For `O=C1CCC(N2C(=O)c3ccc(N4CCN(CC5CN(CCOc6ccc(Oc7c(-c8ccc(Br)cc8)sc8cc(O)ccc78)cc6)C5)CC4)cc3C2=O)C(=O)N1` (centres unmarked) [Compound 185, 5-[4-[[1-[2-[4-[2-(4-bromophenyl)-6-hydroxy-benzothiophen-3-yl]oxyphenoxy]ethyl]azetidin-3-yl]methyl]piperazin-1-yl]-2-(2,6-dioxo-3-piperidyl)isoindoline-1,3-dione] the same measures were 4.5 nM, 1 to 10 nM and 50 to 75%.
For `O=C1CCC(N2C(=O)c3ccc(C4CCN(C5CCN(CCOc6ccc(Oc7c(-c8ccc(Br)cc8)sc8cc(O)ccc78)cc6)CC5)CC4)cc3C2=O)C(=O)N1` (centres unmarked) [Compound 190, 5-(1′-(2-(4-((2-(4-bromophenyl)-6-hydroxybenzo[b]thiophen-3-yl)oxy)phenoxy)ethyl)-[1,4′-bipiperidin]-4-yl)-2-(2,6-dioxopiperidin-3-yl)isoindoline-1,3-dione Hydrochloride], in that order: 11.6 nM, 1 to 10 nM and 50 to 75%.
`O=C1CCC(N2C(=O)c3ccc(N4CC(CN5CCCN(CCOc6ccc(Oc7c(-c8ccc(Br)cc8)sc8cc(O)ccc78)cc6)CC5)C4)cc3C2=O)C(=O)N1` (centres unmarked) [Compound 191, 5-(3-((4-(2-(4-((2-(4-bromophenyl)-6-hydroxybenzo[b]thiophen-3-yl)oxy)phenoxy)ethyl)-1,4-diazepan-1-yl)methyl)azetidin-1-yl)-2-(2,6-dioxopiperidin-3-yl)isoindoline-1,3-dione]: the IC50 at ERα [1] stood at 1.8 nM. At ERα [2], this compound displayed a DC50 of 1 to 10 nM and a Dmax of 50 to 75%.
For `O=C1CCC(N2Cc3cc(N4CCN(C5CCN(CCOc6ccc(Oc7c(-c8ccc(C(F)(F)F)cc8)sc8cc(O)ccc78)cc6)CC5)CC4)ccc3C2=O)C(=O)N1` (centres unmarked) [Compound 192, 3-[5-[4-[1-[2-[4-[6-hydroxy-2-[4-(trifluoromethyl)phenyl]benzothiophen-3-yl]oxyphenoxy]ethyl]-4-piperidyl]piperazin-1-yl]-1-oxo-isoindolin-2-yl]piperidine-2,6-dione], in that order: 2.9 nM, 10 to 100 nM and over 75%.
For `O=C1CCC(N2Cc3c(ccc(N4CCN(C5CCN(CCOc6ccc(Oc7c(-c8ccc(C(F)(F)F)cc8)sc8cc(O)ccc78)cc6)CC5)CC4)c3F)C2=O)C(=O)N1` (centres unmarked) [Compound 193, 3-[4-fluoro-5-[4-[1-[2-[4-[6-hydroxy-2-[4-(trifluoromethyl)phenyl]benzothiophen-3-yl]oxyphenoxy]ethyl]-4-piperidyl]piperazin-1-yl]-1-oxo-isoindolin-2-yl]piperidine-2,6-dione] the same measures were 9.8 nM, 1 to 10 nM and over 75%.
For `O=C1CCC(N2Cc3cc(N4CCN(C5CCN(CCOc6ccc(Oc7c(-c8ccc(Br)cc8)sc8cc(O)ccc78)cc6)CC5)CC4)ccc3C2=O)C(=O)N1` (centres unmarked) [Compound 194, 3-[5-[4-[1-[2-[4-[2-(4-bromophenyl)-6-hydroxybenzothiophen-3-yl]oxyphenoxy]ethyl]-4-piperidyl]piperazin-1-yl]-1-oxo-isoindolin-2-yl]piperidine-2,6-dione] the same measures were 3.9 nM, 1 to 10 nM and over 75%.
In the case of `O=C1CCC(N2Cc3cc(CCCCN4CCCN(CCOc5ccc(Oc6c(-c7ccc(Br)cc7)sc7cc(O)ccc67)cc5)CC4)ccc3C2=O)C(=O)N1` (centres unmarked) [Compound 199, 3-[5-[4-[4-[2-[4-[2-(4-bromophenyl)-6-hydroxybenzothiophen-3-yl]oxyphenoxy]ethyl]-1,4-diazepan-1-yl]butyl]-1-oxo-isoindolin-2-yl]piperidine-2,6-dione], the IC50 on ERα [1] came out at 0.82 nM. Also, at ERα [2], the DC50 was in the range of 1 to 10 nM and the Dmax was in the range of 50 to 75%.
On to `O=C1CCC(N2Cc3c(ccc(N4CCN(CC5CCN(CCOc6ccc(Oc7c(-c8ccc(C(F)(F)F)cc8)sc8cc(O)ccc78)cc6)CC5)CC4)c3F)C2=O)C(=O)N1` (centres unmarked) [Compound 201, 3-[4-fluoro-5-[4-[[1-[2-[4-[6-hydroxy-2-[4-(trifluoromethyl)phenyl]benzothiophen-3-yl]oxyphenoxy]ethyl]-4-piperidyl]methyl]piperazin-1-yl]-1-oxo-isoindolin-2-yl]piperidine-2,6-dione], for which the IC50 at ERα [1] worked out at 8.4 nM. For the same compound, at ERα [2], the DC50 lay in the range of 10 to 100 nM and the maximal degradation (Dmax) was over 75%.
For `O=C1CCC(N2Cc3c(cc(F)c(N4CCN(C5CCN(CCOc6ccc(Oc7c(-c8ccc(Br)cc8)sc8cc(O)ccc78)cc6)CC5)CC4)c3F)C2=O)C(=O)N1` (centres unmarked) [Compound 205, 3-[5-[4-[1-[2-[4-[2-(4-bromophenyl)-6-hydroxybenzothiophen-3-yl]oxyphenoxy]ethyl]-4-piperidyl]piperazin-1-yl]-4,6-difluoro-1-oxo-isoindolin-2-yl]piperidine-2,6-dione] the same measures were 3.5 nM, 10 to 100 nM and over 75%.
Consider `O=C1CCC(N2C(=O)c3ccc(N4CC(N5CCC(Oc6ccc(Oc7c(-c8ccc(Br)cc8)sc8cc(O)ccc78)cc6)CC5)C4)cc3C2=O)C(=O)N1` (centres unmarked) [Compound 213, 5-[3-[4-[4-[2-(4-bromophenyl)-6-hydroxybenzothiophen-3-yl]oxyphenoxy]-1-pipendyl]azetidin-1-yl]2-(2,6-dioxo-3-piperidyl)isoindoline-1,3-dione], for which, on ERα [1], the half-inhibitory concentration (IC50) was 11.2 nM. For the same compound, on ERα [2], the Dmax is under 50%.
For `O=C1CCC(N2C(=O)c3ccc(N4CCC(CN5CC(c6ccc(Oc7c(-c8ccc(Br)cc8)sc8cc(O)ccc78)cc6)C5)CC4)cc3C2=O)C(=O)N1` (centres unmarked) [Compound 214], the IC50 on ERα [1] stood at 10.4 nM. For the same compound, at ERα [2], the DC50 was 1 to 10 nM and the Dmax is 50 to 75%.
